# Legend:
# [1] = test system: MDA-MB-231; assay: MTT cytotoxicity assay; format: cell-based; conditions: Homo sapiens, MDA-MB-231, 48 h, read-out: Cytotoxicity IC50 μM ± S.D. MDA-MB-231
# [2] = test system: MCF-7; assay: MTT cytotoxicity assay; format: cell-based; conditions: Homo sapiens, MCF7, 48 h, read-out: Cytotoxicity IC50 μM ± S.D. MCF-7
# [3] = MTT cytotoxicity assay, normal breast cell line; format: cell-based, human; conditions: human, MCF 10A normal breast cells
# [4] = test system: K. pneumonia; assay: Anti-biofilm activity; format: cell-based; conditions: 50 μg mL^−1
# [5] = test system: S. aureus; assay: Anti-biofilm activity; format: cell-based; conditions: 50 μg mL^−1
# [6] = test system: P. aeruginosa; assay: Anti-biofilm activity; format: cell-based; conditions: 50 μg mL^−1
# [7] = test system: P. vulgaris; assay: Anti-biofilm activity; format: cell-based; conditions: 50 μg mL^−1
# [8] = test system: Candida albicans ATCC 10231; assay: Antimicrobial activity; format: cell-based; conditions: 50 μg mL^−1; NA: not active
# [9] = test system: E. coli; assay: Anti-biofilm activity; format: cell-based; conditions: 50 μg mL^−1
# [10] = biological target: carbonic anhydrase II (Homo sapiens, UniProt P00918); assay: In vitro carbonic anhydrase II enzyme inhibition; format: biochemical
# [11] = test system: MDA-MB-231; assay: Annexin V-FITC apoptosis assay; format: cell-based, human
# [12] = test system: Escherichia coli ATCC 25955; assay: Antimicrobial activity; format: cell-based; conditions: 50 μg mL^−1; NA: not active
# [13] = test system: Salmonella typhimurium; assay: Antimicrobial activity; format: cell-based; conditions: 50 μg mL^−1; NA: not active
# [14] = test system: MDA-MB-231; assay: Cell cycle analysis; format: cell-based, human; conditions: compared to positive control
# [15] = test system: Staphylococcus aureus NRRL B-767; assay: Antimicrobial activity; format: cell-based; conditions: 50 μg mL^−1, NA: not active
# [16] = test system: MDA-MB-231; assay: Cellular uptake assay; format: cell-based, human; conditions: HPLC
# [17] = test system: Klebsiella pneumonia; assay: Antimicrobial activity; format: cell-based; conditions: 50 μg mL^−1; NA: not active
# [18] = test system: S. typhimurium; assay: Anti-biofilm activity; format: cell-based; conditions: 50 μg mL^−1
# [19] = biological target: carbonic anhydrase IX (Homo sapiens, UniProt Q16790); assay: In vitro carbonic anhydrase IX enzyme inhibition; format: biochemical
# [20] = test system: Proteus vulgaris; assay: Antimicrobial activity; format: cell-based; conditions: 24 h, read-out: inhibition ratio% P. vulgaris
# [21] = test system: MCF 10A; assay: MTT cytotoxicity assay, normal breast cell line; format: cell-based, human; conditions: both breast cancer cell lines vs MCF-10A
# [22] = test system: E. coli; conditions: cited from earlier work
# [23] = test system: S. flexenari; conditions: cited from earlier work
# [24] = test system: CA IX; conditions: read-out: CA IX IC50; as reported; cited from earlier work
SMILES,IC50 [1],IC50 [2],IC50 at 48 h [3],Biofilm inhibition ratio% K. pneumonia [4],Biofilm inhibition ratio% S. aureus [5],Biofilm inhibition ratio% P. vulgaris [7],Biofilm inhibition ratio% E. coli [9],inhibition ratio% S. typhimurium [13],inhibition ratio% S. aureus [15],inhibition of growth at 50 µg/mL [20],other results
"COc1ccc(/C=C2/SC(Nc3ccc(S(N)(=O)=O)cc3)=NC2=O)cc1 [Compound 4c, (E)-4-(5-(4-Methoxybenzylidene)-4-oxo-4,5-dihydrothiazol-2-ylamino)benzenesulfonamide]",6.31 ± 0.2 µM,3.67 ± 0.1 µM,22.7 ± 0.8 µM,–,–,–,–,–,–,–,–
"NS(=O)(=O)c1ccc(NC2=NC(=O)/C(=C\c3ccc(O)cc3)S2)cc1 [Compound 4b, (E)-4-(5-(4-Hydroxybenzylidene)-4-oxo-4,5-dihydrothiazol-2-ylamino)benzenesulfonamide]",14.6 ± 0.6 µM,3.63 ± 0.1 µM,17.8 ± 0.6 µM,78.29%,53.06%,16.85%,18.78%,–,–,–,Biofilm inhibition ratio% P. aeruginosa [6]: 45.51%; inhibition ratio% C. albicans [8]: 8.87%
"C=CCc1cc(/C=C2/SC(Nc3ccc(S(N)(=O)=O)cc3)=NC2=O)c(O)c(OC)c1 [Compound 4e, (E)-4-(5-(5-Allyl-2-hydroxy-3-methoxybenzylidene)-4-oxo-4,5-dihydrothiazol-2-ylamino)benzenesulfonamide]",3.58 ± 0.1 µM,4.58 ± 1.8 µM,19.4 ± 0.7 µM,18.60%,45.92%,61.41%,15.47%,75.09%,80.69%,42%,"IC50 [10]: 3920 nM; necrosis phase ([11]; upper left quadrant): 16.65%; annexin V-FITC-positive cells, late apoptotic phase ([11]; upper right quadrant): 22.04%; inhibition ratio% E. coli [12]: 60.66%; arrest in the S phase [14]: 1.4 fold; increase in the percentage of cells at pre-G1 [14]: 22 fold; level of compound taken up into MDA-MB-231 cell line [16]: 12.5 µg/mL; inhibition ratio% K. pneumonia [17]: 62.89%; Biofilm inhibition ratio% S. typhimurium [18]: 63.43%; IC50 ([19]; CA IX IC50 (nM)±S.D.): 10.9 nM; IC50 ([19]; CA IX IC50 (μM)): 11 nM; selectivity to breast cancer cell lines over MCF-10A [21]: 5.5 times"
"COc1cc(/C=C2/SC(Nc3ccc(S(N)(=O)=O)cc3)=NC2=O)cc(OC)c1OC [Compound 4i, (E)-4-(4-oxo-5-(3,4,5-Trimethoxybenzylidene)-4,5-dihydrothiazol-2-ylamino)benzenesulfonamide]",16.3 ± 0.6 µM,4.05 ± 0.2 µM,14.2 ± 0.5 µM,5.43%,22.55%,7.61%,49.72%,–,–,–,Biofilm inhibition ratio% S. typhimurium [18]: 22.86%
"NS(=O)(=O)c1ccc(NC2=NC(=O)/C(=C\c3ccccc3)S2)cc1 [Compound 4a, (E)-4-(5-Benzylidene-4-oxo-4,5-dihydrothiazol-2-ylamino)benzenesulfonamide]",12.8 ± 0.5 µM,9.63 ± 0.4 µM,24.2 ± 0.9 µM,–,–,–,–,–,–,–,–
"NS(=O)(=O)c1ccc(NC2=NC(=O)/C(=C\c3ccc([N+](=O)[O-])cc3)S2)cc1 [Compound 4g, (E)-4-(5-(4-Nitrobenzylidene)-4-oxo-4,5-dihydrothiazol-2-ylamino)benzenesulfonamide]",5.54 ± 0.2 µM,2.55 ± 0.1 µM,47.9 ± 1.7 µM,79.46%,35.24%,–,–,60.97%,69.74%,23.3%,IC50 [10]: 1550 nM; IC50 ([19]; CA IX IC50 (nM)±S.D.): 17 nM; IC50 ([19]; CA IX IC50 (μM)): 17 nM; selectivity to breast cancer cell lines over MCF-10A [21]: 8.5 times
C[C@@H](O)[C@H]1C(=O)N2C(C(=O)O)=C(SCCN=CN)C[C@H]12 [imipenem],–,–,–,–,–,–,–,–,–,–,zone inhibition (ZI) E. coli [22]: 30 mm; zone inhibition (ZI) S. flexenari [23]: 27 mm
"COc1cc(/C=C2/SC(Nc3ccc(S(N)(=O)=O)cc3)=NC2=O)ccc1O [Compound 4h, (E)-4-(5-(4-Hydroxy-3-methoxybenzylidene)-4-oxo-4,5-dihydrothiazol-2-ylamino)benzenesulfonamide]",1.56 ± 0.1 µM,1.52 ± 0.1 µM,26.1 ± 1.1 µM,77.52%,19.39%,50.54%,19.89%,59.11%,68.30%,19.1%,IC50 [10]: 2190 nM; inhibition ratio% E. coli [12]: 29.51%; Biofilm inhibition ratio% P. aeruginosa [6]: 35.96%; level of compound taken up into MDA-MB-231 cell line [16]: 17.07 µg/mL; inhibition ratio% K. pneumonia [17]: 33.51%; Biofilm inhibition ratio% S. typhimurium [18]: 66.86%; IC50 ([19]; CA IX IC50 (nM)±S.D.): 25.6 nM; IC50 ([19]; CA IX IC50 (μM)): 26 nM; selectivity to breast cancer cell lines over MCF-10A [21]: 17.5 times
"C[C@@H]1[C@H](O)[C@@H](C)/C=C/C=C/CC/C=C/C=C/C=C/C=C/C(O[C@H]2O[C@H](C)[C@@H](O)[C@H](N)[C@@H]2O)CC2O[C@](O)(CC(O)C(O)CCC(O)CC(O)CC(O)CC(=O)O[C@H]1C)CC(O)C2C(=O)O (stereo partly shown) [Nys, nystatin, reference compound]",–,–,–,–,–,–,–,–,–,–,inhibition ratio% C. albicans [8]: 99.21%
"CN(C)c1ccc(/C=C2/SC(Nc3ccc(S(N)(=O)=O)cc3)=NC2=O)cc1 [Compound 4j, (E)-4-(5-(4-(Dimethylamino)benzylidene)-4-oxo-4,5-dihydrothiazol-2-ylamino)benzenesulfonamide]",10.1 ± 0.4 µM,26.6 ± 1 µM,13.1 ± 0.5 µM,–,–,–,–,–,–,5.08%,–
"NS(=O)(=O)c1ccc(NC2=NC(=O)/C(=C\c3ccc(C(=O)O)cc3)S2)cc1 [Compound 4f, (E)-4-((4-oxo-2-(4-Sulfamoylphenylamino)thiazol-5(4H)-ylidene)methyl)benzoic acid]",17.2 ± 0.7 µM,36 ± 1.4 µM,30.3 ± 1.1 µM,10.08%,21.43%,64.67%,19.89%,45.72%,57.93%,3.39%,inhibition ratio% E. coli [12]: 46.45%; inhibition ratio% K. pneumonia [17]: 26.80%; Biofilm inhibition ratio% S. typhimurium [18]: 36.57%
"NS(=O)(=O)c1ccc(NC2=NC(=O)/C(=C\c3ccc(Cl)cc3)S2)cc1 [Compound 4d, (E)-4-(5-(4-Chlorobenzylidene)-4-oxo-4,5-dihydrothiazol-2-ylamino)benzenesulfonamide]",1.88 ± 0.1 µM,15.5 ± 0.6 µM,22.9 ± 0.8 µM,–,–,–,–,–,–,–,–
"O=C(O)c1cn(C2CC2)c2cc(N3CCNCC3)c(F)cc2c1=O [Cip, ciprofloxacin, reference compound]",–,–,–,–,–,–,–,99.56%,99.25%,99.8%,inhibition ratio% E. coli [12]: 99.1%; inhibition ratio% S. aureus ([15]; listed as CIP): 99.2%; inhibition ratio% K. pneumonia [17]: 99.7%

# Source: paper PMC9037358 (RSC Advances, 2021)
